From patent US12410163B2, “Compounds as GLP-IR agonists” (Terns Pharmaceuticals, Inc., priority 2022, dated 2025)

Legend:
human GLP-1R receptor = target: T1, human GLP-1R receptor (Homo sapiens, UniProt P43220); assay: GLP-1R low expression cell assay (cAMP TR-FRET, CHO-K1_hGLP-1Rlow_clone10); format: cell-based; settings: CHO-K1_hGLP-1Rlow_clone10 cells, percent activation relative to control GLP-1 peptide
T1 construct: expressed in transfected cells
Description: Stable cell lines expressing high and low GLP-1R surface expression are generated in CHO-K1 cells transfected (Fugene 6) with a puromycin selectable DNA plasmid encoding human GLP-1R receptor (accession number: NM_002062.5) under control of an EF1A promoter. Transfected cells are seeded into 24-well plates (9,000 cells/well) containing complete medium and incubated in a humidified incubator at 37° C. with 5% carbon dioxide. After overnight incubation, medium is replaced with complete medium supplemented with puromycin (6 μg/mL) and refreshed every 2-3 days to select for stably transfected cells. Individual pools of selected cells are expanded prior to analysis for responsiveness to GLP-1 control peptide using a TR-FRET assay to detect cAMP (LANCE Ultra cAMP Assay, Perkin Elmer). Briefly, cells are collected in Versene solution, plated in 384-well plates (1,000 cells/well) and combined with serially diluted GLP-1R control peptide (10 nL) using an acoustic dispenser (ECHO). Plates are incubated for 30 minutes at 25° C. prior to the addition of EU-cAMP tracer (5 μL) and Ulight-anti-cAMP (5 μL) reagents to each well, followed by 15 minutes incubation at 25° C. TR-FRET signal is detected using an EnVision Multimode Plate Reader (excitation=320 nm; emission=615 and 655 nm). Dose-response curves are used to generate EC50 values as a measure of responsiveness to the GLP-1R control peptide. Selected cell lines are monitored for responsiveness over multiple passages to ensure stability. […] Briefly, GLP-1R expression is analyzed by flow cytometry using a fluorescein-labeled Exendin-4 peptide fluorescent probe (FLEX). Cells are harvested in Versene solution and washed 3-times with PBS+0.5% BSA before incubation with FLEX reagent (10 μM) for 2 hours at room temperature. After incubation, cells are washed 3-times in PBS+0.5% BSA before final resuspension in PBS prior to analysis by flow cytometry to measure FLEX mean fluorescence intensity (MFI) as a measure of GLP-1R expression on the cell surface.
For compound testing in the CHO-K1_hGLP-1Rlow_clone10 cell lines, cells are seeded in 384-well plates (1,000 cells/well). Test compounds are serially diluted in DMSO (10-point, 3-fold dilution), added to wells using an ECHO dispenser (10 nL/well) and plates are centrifuged for 1 min and agitated for 2 min at room temperature prior to 30-minute incubation at 25° C. After incubation, Eu-cAMP (5 μL) and Ulight-anti-cAMP (5 μL) reagents are added to each well, followed by centrifugation for 1 minute, agitation for 2 minutes at room temperature, and final incubation of the plates at 25° C. for 15 minutes. Plates are read using an EnVision microplate reader (excitation=320 nm; emission=615 and 655 nm). Dose-response curves are generated from duplicate wells based on percent activation calculated relative to a control GLP-1 peptide agonist that was run in parallel. EC50 values are determined by fitting percent activation as a function of compound concentration using the Hill equation (XLfit).
Stable cell lines expressing high and low GLP-1R surface expression were generated in CHO-K1 cells transfected (Fugene 6) with a puromycin selectable DNA plasmid encoding human GLP-1R receptor (accession number: NM_002062.5) under control of an EF1A promoter. Transfected cells were seeded into 24-well plates (9,000 cells/well) containing complete medium and incubated in a humidified incubator at 37° C. with 5% carbon dioxide. After overnight incubation, medium was replaced with complete medium supplemented with puromycin (6 μg/mL) and refreshed every 2-3 days to select for stably transfected cells. Individual pools of selected cells were expanded prior to analysis for responsiveness to GLP-1 control peptide using a TR-FRET assay to detect cAMP (LANCE Ultra cAMP Assay, Perkin Elmer).

human hepatocytes = assay: Metabolic stability in hepatocytes; format: in vitro ADME; settings: 1 μM, 1×10^6 cells/mL, 0-240 min
Description: (§1) Test compounds are incubated in human hepatocytes and stability is assessed from the substrate […] approach. Test compounds are dissolved in dimethyl sulfoxide (DMSO) to create a 10 mM Stock, and then further diluted to create a 1000× Working Stock of 1 mM with DMSO in 96-well plates for test compounds and the positive control (midazolam). Vials containing cryopreserved hepatocytes are removed from the liquid nitrogen tank and immediately immersed in a 37° C. water bath. The vials are shaken gently until the contents had thawed and were then immediately emptied into 48 mL of pre-warmed HT Medium in a 50 mL conical tube. Cells remaining in the vial are resuspended with 1.0 mL of pre-warmed HT Medium and added to the conical tube. The tube is capped and then gently inverted several times to resuspend the hepatocytes. The cell suspension is centrifuged at 50×g at room temperature for 5 minutes and the supernatant discarded. The cell pellet is loosened by gently swirling the centrifuge tube and is re-suspended in 4 mL of warm Dulbecco's Modified Eagle medium (DMEM). Cell density is determined by a cell counter by Nexcelom, and DMEM medium is added to obtain a target density of 1×10^6 cells/mL. The assay is carried out in 96-well microtiter plates. Test Compounds are incubated at 1 μM with 1×10^6 cells/mL hepatocytes in DMEM for 0, 30, 60, 120 and 240 minutes. The incubation is carried out with gentle shaking at 37° C. under a humid atmosphere of 95% air/5% CO2. The volume of the incubation mixture is 37 μL with a final 0.1% DMSO. At each of the time points, the incubation is stopped by adding 150 μL quenching solution (100% acetonitrile, 0.1% formic acid containing bucetin as an internal standard for positive ESI mode). Subsequently, the mixtures are vortexed for 20 min and centrifuged at 4,000 RPM at 10° C. The supernatant (80 μL) is transferred to a clean 96-well plate and analyzed by LC-MS/MS. Midazolam at 1 μM with a final 0.1% DMSO is included as a positive control to verify assay performance. The percent parent remaining, intrinsic and predicted hepatic clearance and t1/2 are calculated. All samples are analyzed by LC-MS/MS using an AB Sciex API 4000 instrument, coupled to a Shimadzu LC-20AD LC Pump system. Separation is achieved using a Waters Atlantis T3 dC18 reverse phase HPLC column (20 mm×2.1 mm) at a flow rate of 0.5 mL/min. The mobile phase consisted of 0.1% formic acid in water (solvent A) and 0.1% formic acid in 100% acetonitrile (solvent B). Elution conditions are detailed below.
(§2) The ion optics of each test compound are optimized for their declustering potential (DP), […] (CE), collision-cell exit potential (CXP) and used in a selected ion monitoring experiment in the positive ion mode. The peak area ratio of each test compound to internal standard is then evaluated for stability. The extent of metabolism is calculated based on the disappearance of the test compound, compared to its initial concentration. The initial rates of clearance of the test compound are calculated using the linear regression plot of semi-log % remaining of the compound versus time. The elimination rate constant (k) of the linear regression plot is then used to determine t1/2 and the intrinsic clearance (CLint) using the following formula, where Chepatocyte (million cells/mL) is the cell density of the incubation: k=−slope t1/2=0.693/k CLint=k/Chepatocyte
(§3) Test compounds were incubated in human hepatocytes and stability was assessed from the substrate […] approach. Test compounds were dissolved in dimethyl sulfoxide (DMSO) to create a 10 mM Stock, and then further diluted to create a 1000× Working Stock of 1 mM with DMSO in 96-well plates for test compounds and the positive control (midazolam). Vials containing cryopreserved hepatocytes were removed from the liquid nitrogen tank and immediately immersed in a 37° C. water bath. […]

[1] = Metabolic stability in hepatocytes; format: in vitro ADME; settings: cryopreserved human hepatocytes (suspension), 1×10^6 cells/mL, intrinsic clearance, read-out: hHep CLint
Description: as §1, §2, §3

T1 sequence (P43220 24-463): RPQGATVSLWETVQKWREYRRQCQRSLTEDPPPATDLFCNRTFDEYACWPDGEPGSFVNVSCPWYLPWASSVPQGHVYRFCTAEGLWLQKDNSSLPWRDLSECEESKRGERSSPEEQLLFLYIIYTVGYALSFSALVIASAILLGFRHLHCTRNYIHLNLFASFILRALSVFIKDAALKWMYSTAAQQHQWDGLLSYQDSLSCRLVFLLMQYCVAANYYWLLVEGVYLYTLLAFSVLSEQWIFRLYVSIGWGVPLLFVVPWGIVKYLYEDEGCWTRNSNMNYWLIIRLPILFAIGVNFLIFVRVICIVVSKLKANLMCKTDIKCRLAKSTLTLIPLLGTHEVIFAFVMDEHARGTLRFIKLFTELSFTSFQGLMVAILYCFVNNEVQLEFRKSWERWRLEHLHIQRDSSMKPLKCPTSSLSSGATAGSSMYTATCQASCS

| EC50 (human GLP-1R receptor) [nM] | hHep t1/2 (human hepatocytes) [h] | CLint scaled at 1 μM [1] [mL/min/kg] | Structure (SMILES) |
| --- | --- | --- | --- |
| 50 to 100 | > 8 | 5.01 | N#Cc1ccc(COc2cccc(N3CCN(Cc4nc5ccc(C(=O)O)cc5n4C[C@@H]4CCO4)[C@H]4CC43)n2)c(F)c1 (single isomer, unassigned) [Compound 42] |
| > 100 | > 8 | 5.01 | N#Cc1ccc(COc2ccnc(N3CCN(Cc4nc5ccc(C(=O)O)cc5n4Cc4cncs4)[C@H]4C[C@H]43)n2)c(F)c1 [Compound 19, 2-((5-(4-((4-Cyano-2-fluorobenzyl)oxy)pyrimidin-2-yl)-2,5-diazabicyclo[4.1.0]heptan-2-yl)methyl)-1-(thiazol-5-ylmethyl)-1H-benzo[d]imidazole-6-carboxylic Acid] |
| – | > 8 | 5.01 | CCn1nncc1Cn1c(CN2CCN(c3cccc(OCc4ccc(C#N)cc4F)n3)C3C[C@@H]32)nc2ccc(C(=O)O)cc21 (some centres unmarked) [Compound 44, 2-((5-(6-((4-Cyano-2-fluorobenzyl)oxy)pyridin-2-yl)-2,5-diazabicyclo[4.1.0]heptan-2-yl)methyl)-1-((1-ethyl-1H-1,2,3-triazol-5-yl)methyl)-1H-benzo[d]imidazole-6-carboxylic Acid] |
